Data as given in publication PMC9415367 (Viruses, 2022).
“Also recorded” adds a separate entry of the source.

Legend:
[1] = test system: HEV-ORF2; assay: Immunofluorescence assay of HEV ORF2; type: cell-based, Hepatitis E Virus; conditions: 800 μM, 7 days post-transfection; untreated 100%
[2] = test system: HEV-ORF2; assay: Western blot of HEV ORF2; type: cell-based, Hepatitis E Virus; conditions: treated vs untreated cells, 7 days post-transfection
[3] = test system: Influenza virus; design: method as in earlier work; conditions: cited from earlier work
[4] = in vitro; conditions: human, Huh7 cells
[5] = test system: p6 HEV-Luc Replicon; assay: HEV replicon Renilla luciferase assay in Huh7 cells; type: cell-based, Hepatitis E Virus; conditions: for Inhibition of HEV Replicon (luciferase activity): Huh7 cells
[6] = target: T1, HEV-MTase (Hepatitis E virus genotype 1, UniProt P33424); assay: MicroScale Thermophoresis (MST) binding affinity; conditions: 50 nM MTase, HPPA 10 μM to 150 pM; read-out: Dissociation constant (Kd)
T1 construct: made in house; host or cells: E. coli BL21-DE3
T1 sequence (P33424 33-353): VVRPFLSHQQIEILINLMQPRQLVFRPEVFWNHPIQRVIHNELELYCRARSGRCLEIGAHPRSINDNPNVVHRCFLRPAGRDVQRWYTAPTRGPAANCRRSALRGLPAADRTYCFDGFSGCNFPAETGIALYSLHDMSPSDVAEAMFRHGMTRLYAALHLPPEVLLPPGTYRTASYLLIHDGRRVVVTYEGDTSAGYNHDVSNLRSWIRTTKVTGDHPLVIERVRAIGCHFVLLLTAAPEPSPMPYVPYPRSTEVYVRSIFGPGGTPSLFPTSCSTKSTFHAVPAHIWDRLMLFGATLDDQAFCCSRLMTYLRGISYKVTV

[7] = Cell viability assay (MTT); conditions: human, Huh7 cells
[8] = test system: Huh7 cells; assay: Cell viability assay (MTT)
[9] = target: T1, HEV-MTase; assay: Cell-free inhibition of HEV-MTase activity (MTase-Glo Methyltransferase Assay); type: biochemical; conditions: 0.675 μM enzyme; for Inhibition of HEV-MTase activity: 1 μM compound

SMILES | ORF2 fluorescence level [1] | ORF2 expression (Western blot) [2] | Influenza virus propagation [3] | viability at 72 h, 18.7 µM [4] [%] | IC50 ([5]; Hepatitis E virus, Huh-7, 72 h, read-out: 50% inhibitory concentration (IC50), HEV replicon) [µM] | Inhibition of HEV Replicon (luciferase activity) [5] | Inhibition of HEV Replicon (luciferase activity) ([5]; listed as HPPA) | Kd [6] [µM] | CC50 at 72 h [7] [µM] | Cytotoxic effects [8] | IC50 ([9]; 1 μM SAM, 0.5 mM GTP, 37 °C, 2 h, ligand 0 to 10 μM) [µM] | Inhibition of HEV-MTase activity [9]
O=C(O)CCc1ccc(O)cc1 [Compound 1, 3-(4-hydroxyphenyl)propionic acid] | ~ 25% | decrease in ORF2 expression | prevents Influenza virus propagation | ~95 | 77.1 ± 18.7 | showed the inhibition of HEV Replicon | significantly reduced | ~2 | > 1000 | without any cytotoxic effects | 0.932 ± 0.15 | maximum inhibition among all the inhibitors; also recorded: inhibited the MTase activity
O=C(O)Cc1ccc(O)cc1 [Compound 2, 2-(4-hydroxyphenyl)acetate] | – | – | – | – | – | – | – | – | – | – | – | inhibited the MTase activity
CO[C@H]1O[C@H](CO)[C@@H](O)[C@H](O)[C@@H]1O [Compound 6, (2R,3S,4S,5S,6S)-2-(hydroxymethyl)-6-methoxyoxane-3,4,5-triol] | – | – | – | – | – | – | – | – | – | – | – | inhibited the MTase activity
